Reference: patent US9668959B2, “A3 adenosine receptor ligands for modulation of pigmentation” (ORADIN PHARMACEUTICAL LTD., priority 2009, dated 2017)

Tests used:
human breast skin = assay: Ex vivo human skin organ culture, pigmentation by Fontana-Masson stain; type: cell-based; details: for melanin accumulation and/or deposition in keratinocytes (histological appearance): FIG. 9
Protocol: Formalin fixed paraffin embedded skin sections from samples of human breast skin treated with IB-MECA, MRS-1523 or hydroquinone as described for FIG. 8, were evaluated for Fontana-Masson staining and visualized by light microscopy (×400). IBMX (100 μM) was used as a positive control for induction of melanogenesis. K, keratinocytes; M, melanocytes.
Samples of human breast skin obtained during breast surgery were cut into pieces (0.5×0.5 cm) and cultured in DMEM medium (described above) in 6 well plates and incubated at 37° C. with 5% CO2 for 12 days. Skin samples were topically treated with 10 or 50 μM of various A3 adenosine receptor ligands or 100 μM hydroquinone three times during the incubation period and the medium was exchanged every 3 days.

Mitf = Mitf expression and localization in B16 melanocytes (immunostaining, confocal microscopy); type: cell-based, murine; details: 10 μM; for Mitf expression: 3 h or 24 h, FIG. 7
Protocol: B16 melanocytes were grown for 24 h on glass cover-slips coated with poly-L-lysine (500 ug/ml) in 6 wells plates in the presence of IB-MECA or MRS-1523 (10 μM), for 3 h or 24 h at 37° C. Cells were fixed in 4% formaldehyde in phosphate buffered saline (PBS) for 1 h at room temperature. […] To block non-specific interaction of the antibodies, cells were incubated with PBS (1% BSA, 0.1% Triton X-100). […] Cells were washed three times with PBS and mounted with Fluoromount (Sigma). Cells were visualized by confocal microscopy (excitation 553 and emission at 568, Lieca).

human skin explants = assay: Ex vivo human skin organ culture, pigmentation by DOPA staining and light transmission; type: cell-based; details: for number of dark-stained DOPA positive melanocytes (D-P-M) compared to control: IB-MECA or MRS-1523 10 or 50 μM, hydroquinone 100 μM, FIGS. 8B and 8D; for melanin levels in skin explants: 10 or 50 μM, 12 days of exposure
Protocol: Samples of human breast skin obtained during breast surgery were cut into pieces (0.5×0.5 cm) and cultured in DMEM medium (described above) in 6 well plates and incubated at 37° C. with 5% CO2 for 12 days. […] Treated skin samples were washed with PBS and the epidermal sheets were separated from the dermis and incubated in 0.1% L-3,4-DOPA in PBS for 4 h at 37° C. The epidermis sheets were then fixed with 4% formaldehyde solution, dehydrated by graded alcohol, cleared in xylene, and mounted on glass slides. DOPA positive melanocytes were visualized by light microscopy (×400 magnification). […] Light transmission of each area in the epidermis sheet was calculated and expressed as a mean of density of three images.

ERK1/2 = ERK1/2 phosphorylation in B16 melanocytes (western blot); type: cell-based, murine; details: for ERK phosphorylation: 72 hours of exposure, non-starved cultures (10% FCS), FIG. 6B
Protocol: (§1) B16 melanocytes grown in 6-well plates were serum starved overnight and then incubated in the presence of IB-MECA or MRS-1523 (10 μM), for different time intervals at 37° C. Cells were then rinsed with ice cold PBS and lysed by addition of RIPA buffer containing: proteinase inhibitor (PIC, 1:50 v/v), 0.1 mM phenylmethylsulphonylfluoride (PMSF) and 1 mM sodium orthovandate. Cells debris was removed by centrifugation. The protein level in the supernatants was determined using BSA as standard. Equal amounts of the sample (20 μg) were separated by SDS-PAGE using 10% polyacrylamide gels. The resolved proteins were then electroblotted onto nitrocellulose membrane. Membranes were blocked with 1% bovine serum albumin and incubated with anti-ERK-2 antibody (1:1000) or anti-phospho-ERK antibody (1:10000) for 1 h at room temperature, or with anti-Akt-1 antibody (1:1000) or with anti-phospho-Akt antibody […] at 4° C. for 24 h. Blots were then washed and incubated with horseradish peroxidase (conjugated secondary antibodies), for 1 hour at room temperature. The proteins were detected using ECL kit. For the detection of ERK phosphorylation after 72 hours of exposure to the ligands, non-starved cells were used (with 10% FCS).
ERK phosphorylation in non-starved cultures (containing 10% FCS) after 72 hours of exposure to the ligands was examined.

Akt = Akt phosphorylation in serum starved B16 melanocytes (western blot); type: cell-based, murine; details: 10 μM, up to 3 h
Protocol: as §1

B16 melanocytes [1] = assay: Microscopy of melanosome level and distribution in treated B16 melanocytes; type: cell-based, murine; details: 10 μM, 24 h, FIG. 3A
B16 melanocytes [2] = assay: Melanin assay (melanin in cell lysates and media) in B16 melanocytes; type: cell-based, murine; details: for melanin secretion to the media, visual (photograph): FIG. 3E; for detectable levels of melanin secreted to the medium (extracellular): after 24 hours of exposure; for increase of the total melanin level: FIG. 1B
Protocol: B16 F1 melanoma cells were grown adherently and maintained in DMEM (without phenol red), containing 10% fetal calf serum, 1% antibiotics (penicillin, streptomycin and nystatin, each at 100 U/ml), and 2 mM L-glutamine. Cells were cultured at 37° C. in 5% CO2, and passaged two to three times weekly at a ratio of 1:10.
Melanin content was determined as reported by Sato et al., (2008), Biol. Pharm. Bull., 31(1):33-7, with modifications. Cells (6.5×10^4) were seeded into 6 well plates with 5 ml of DMEM medium (described above) and incubated at 37° C. with 5% CO2 for 3-4 hours to enable cell adherence. Cells were then exposed to test chemicals (IB-MECA, MRS-1523 or kojic acid) at the desired concentration and incubation periods. After the treatment, the supernatants were collected to determine the amount of melanin secreted to the medium. Cells were washed with PBS, detached by incubation with trypsin/EDTA and then DMEM with serum (0.75 ml) was added to each well. Cells were collected by centrifugation and lysed by exposure to 2N NaOH (1 ml) at 60° C. for 1 h and the melanin content was determined by measuring the absorption at 400 nm. The amount of protein in each lysate was determined using bovine serum albumin is used as the standard. The amount of melanin in each sample was calculated using synthetic melanin as standard. The results were expressed as the melanin content per mg protein (μg/mg protein). To compare among treatments, the results were expressed as percent relative to control.

A3 adenosine receptor = details: cited from earlier work
[3] = 10 μM, serum starved cells, FIG. 6A
[4] = highest IB-MECA concentration, 5 days, FIG. 1A

Q: Which “pigmentation of Fontana-Masson stained skin sections compared to control” value (human breast skin; 100 μM, positive control) does the source give for `CC(C)Cn1c(=O)n(C)c(=O)c2[nH]cnc21` [IBMX, 3-isobutyl-1-methyl-xanthine] here?
A: The value was “increased pigmentation”.

Q: Which results are given for `CCCOC(=O)c1c(-c2ccccc2)nc(CC)c(C(=O)SCC)c1CCC` [MRS-1523, 3-propyl-6-ethyl-5[(ethylthio)carbonyl]-2-phenyl-4-propyl-3-pyridine carboxylate]?
A: Mitf expression (Mitf): very low Mitf expression; melanin accumulation and/or deposition in keratinocytes (histological appearance) (human breast skin): lesser extent of melanin accumulation and/or deposition in the keratinocytes; pigmentation of Fontana-Masson stained skin sections compared to control (human breast skin; concentration not given): decreased pigmentation; pigmentation decreased by (light transmission through epidermal sheets after DOPA staining) (human skin explants; 10 μM, 12 days): 80+21.8%; pigmentation decreased by (light transmission through epidermal sheets after DOPA staining) (human skin explants; 50 μM, 12 days): 49.5 ± 6.9%; number of dark-stained DOPA positive melanocytes (D-P-M) compared to control (human skin explants; 12 days): decreased number; melanin levels in skin explants (human skin explants; topical): decreased melanin levels; time to induced phosphorylation of ERK 1 (ERK1/2; [3]): ≤ 30 min; time to induced phosphorylation of ERK 2 (ERK1/2; [3]): ≤ 10 min; ERK phosphorylation (ERK1/2): stimulated phosphorylation of both ERK1 and ERK 2; Akt phosphorylation on continued exposure (Akt): downregulation of P-Akt; melanosome level and distribution in the cytosol (B16 melanocytes [1]): more melansomes were observed in the cell periphery and in the dendritic sites of the control and IB-MECA treated melanocytes as compared to MRS-1523 treated cells; melanin level in the cells decreased by (B16 melanocytes [2]; 1 μM, 5 days): 27±5.7%; total melanin decreased by (B16 melanocytes [2]; 1 μM, 5 days): 37±5.7%; melanin level in the cells decreased by (B16 melanocytes [2]; 5 μM, 5 days): 24±1.7%; total melanin decreased by (B16 melanocytes [2]; 5 μM, 5 days): 24±1.9%; decrease in the overall melanin level (B16 melanocytes [2]; 10 μM, 5 days): 88±1.3%; melanin secretion to the media, visual (photograph) (B16 melanocytes [2]; 10 μM, 5 days): visually observable decrease in melanin; detectable levels of melanin secreted to the medium (extracellular) (B16 melanocytes [2]; 10 μM): not observed; total melanin level decreased by (B16 melanocytes [2]; 10 μM, four days (96 h)): 67±4.4%; melanin level within the cells decreased by (B16 melanocytes [2]; 40 μM, 5 days, FIG. 2A): 11±2.3%; melanin secretion blocked by (B16 melanocytes [2]; 40 μM, 5 days, FIG. 2A): 88±1.7%; decrease in total melanin (B16 melanocytes [2]; 40 μM, 5 days, FIG. 2B): 67±1.07%; decrease of the intracellular melanin (B16 melanocytes [2]; "this treatment" (concentration unclear), 5 days): 48%±4.9; secreted and total melanin levels compared to control (B16 melanocytes [2]; all concentrations within 1-40 μM, 5 days): lower than that of the control

Q: What does the source list for `O=c1cc(CO)occ1O` [kojic acid]?
A: effect on melanin synthesis and secretion (B16 melanocytes [2]; 5 days, FIG. 4A): both melanin synthesis (overall melanin levels) and secretion (melanin level in the medium) were affected; inhibition in the total melanin level (B16 melanocytes [2]; 5 days, concentration not given, FIG. 4B): 51%±2.4

Q: With `Oc1ccc(O)cc1` [hydroquinone] as the compound, how does the “number of dark-stained DOPA positive melanocytes (D-P-M) compared to control” value (human skin explants; 12 days) read?
A: Its value is “increased number”.

Q: What about the skin pigmentation (human skin explants; topical, 100 μM, 12 days) of the same compound?
A: Its skin pigmentation is “increased skin pigmentation”.

Q: With `CNC(=O)[C@H]1O[C@@H](n2cnc3c(NCc4cccc(I)c4)ncnc32)[C@H](O)[C@@H]1O` [IB-MECA, N^6-(3-iodobenzyl) adenosine-5′-(N-methyluronamide)] as the compound, how does the “time to translocation of Mitf protein to the nucleus” value (Mitf) read?
A: Its value is at most 3 h.

Q: What about the Mitf expression (Mitf) of the same compound?
A: The Mitf expression was “highly expressed”.

Q: What about the “Mitf expression in cytoplasm and nucleus” value (Mitf; after 24 h of exposure) of the same compound?
A: Its value is “remained high”.

Q: And the “pigmentation of Fontana-Masson stained skin sections compared to control” value (human breast skin; 10 μM)?
A: The value was “increased pigmentation”.

Q: And the “melanin accumulation and/or deposition in keratinocytes (histological appearance)” value (human breast skin)?
A: Its value is “elevation in melanin accumulation and/or deposition in the adjacent keratinocytes”.

Q: And the “pigmentation increased by (light transmission through epidermal sheets after DOPA staining)” value (human skin explants; 10 μM, 12 days)?
A: Its value is 27+3.9%.

Q: What about the “pigmentation increased by (light transmission through epidermal sheets after DOPA staining)” value (human skin explants; 50 μM, 12 days) of the same compound?
A: Its value is 36+2.6%.

Q: What about the “number of dark-stained DOPA positive melanocytes (D-P-M) compared to control” value (human skin explants; 12 days) of the same compound?
A: Its value is “increased number”.

Q: And the “melanin levels in skin explants” value (human skin explants; topical)?
A: The value was “increased melanin levels”.

Q: And the “level of ERK phosphorylation” value (ERK1/2; 10 μM, 10 min to 3 h, serum starved cells, FIG. 6A)?
A: The value was “did not increase the level of ERK phosphorylation”.

Q: What about the ERK phosphorylation (ERK1/2) of the same compound?
A: The ERK phosphorylation was “did not appear to affect ERK phosphorylation”.

Q: And the “Akt phosphorylation on continued exposure” value (Akt)?
A: Its value is “increased phosphorylation of Akt”.

Q: What about the “selectivity for the A3 adenosine receptor versus either the A1 or A2A receptors” value (A3 adenosine receptor) of the same compound?
A: Its value is 50 fold.

Q: And the “melanosome level and distribution in the cytosol” value (B16 melanocytes [1])?
A: Its value is “melanosomes were accumulated in the perinuclear areas”.

Q: And the “increase of the total melanin level” value (B16 melanocytes [2]; 5 μM, 5 days)?
A: The value was 220±19.4%.

Q: What about the “level of total melanin” value (B16 melanocytes [2]; 10 μM, 72 hours of exposure) of the same compound?
A: The value was “non-significantly increased”.

Q: What about the “increase in the total melanin level” value (B16 melanocytes [2]; 10 μM, 120 h) of the same compound?
A: The value was 537±31.9%.

Q: And the “increase of the total melanin level” value (B16 melanocytes [2]; 10 μM, 5 days)?
A: Its value is 369±1%.

Q: What about the “melanin secretion to the media, visual (photograph)” value (B16 melanocytes [2]; 10 μM, 5 days) of the same compound?
A: Its value is “visually observable increase in melanin”.

Q: What about the “detectable levels of melanin secreted to the medium (extracellular)” value (B16 melanocytes [2]; 10 μM) of the same compound?
A: Its value is “not observed”.

Q: And the “total melanin level increased by” value (B16 melanocytes [2]; 10 μM, four days (96 h))?
A: Its value is 198±12.1%.

Q: And the “increase of the total melanin level” value (B16 melanocytes [2]; 40 μM, 5 days)?
A: Its value is 441±53.8%.

Q: What about the “intracellular melanin level increased by” value (B16 melanocytes [2]; [4]) of the same compound?
A: The value was 143±4.1%.

Q: What about the “secretion of melanin to the media increased by” value (B16 melanocytes [2]; [4]) of the same compound?
A: The value was 554±23.8%.
